From PubChem BioAssay AID179 (DTP/NCI, 2004)
Calls of active or inactive are those of the source.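 How the source made its calls: active means compounds giving half or more protection of infected cells from virus-caused growth loss, again on retest; inactive means the rest.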

Test system: CEM cells HIV-1 protection, formazan growth assay
Assay: NCI AIDS Antiviral Assay
Conditions: for IC50: measured here: growth of uninfected CEM cells
In short: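 Screen of anti-HIV-1 activity in human CEM cells using a formazan-based growth measurement at five drug concentrations. Hits with 50% or greater protection were repeated, and confirmation required reproducible complete protection.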

| SMILES | EC50 [µM] | IC50 [µM] | outcome |
| --- | --- | --- | --- |
| NCCCC[C@H](NC(=O)[C@H](CS)NC(=O)[C@@H](N)Cc1cnc[nH]1)C(=O)N[C@H](Cc1ccccc1)C(=O)N[C@@H](Cc1c[nH]c2ccccc12)C(=O)N[C@@H](Cc1c[nH]c2ccccc12)C(N)=O | > 200 | > 200 | – |
| COC(=O)CC(=O)OSc1ccccc1 | > 251 | 18.2 | – |
| CC1C(c2ccccc2)OCN1CC=C(c1ccsc1)c1ccsc1 (stereo not given) | > 200 | 15.1 | – |
| Cc1ccc2nc3n(c2c1)C(c1c(F)cccc1F)SC3 (stereo not given) | 26.9 | 45.7 | – |
| COC(=O)CNC(=O)C(CSC(=O)OCC1c2ccccc2-c2ccccc21)NC(=O)CCC(NC(=O)OCC1c2ccccc2-c2ccccc21)C(=O)OC (stereo not given) | > 200 | 29.5 | – |
| COc1ccc(C2(O)CCCCC2)cc1 | > 66.1 | > 66.1 | – |
| O=C1C2C3C=C4c5ccccc5N(c5ccccc5)C4(C2C(=O)N1c1ccc([N+](=O)[O-])cc1)[C@H]1C(=O)N(c2ccc([N+](=O)[O-])cc2)C(=O)[C@@H]31 (stereo not given in full) | > 11 | > 11 | – |
| O=[N+]([O-])c1ccc(NCCS(=O)(=O)O)c([N+](=O)[O-])c1 | > 794 | > 794 | – |
| CC(C)=CC(=O)OC1C2C(C)=CC(O)C(O)C2(C)C2C3(O)OCC24C(CC(=O)OC14)C(C)C3O (stereo not given) | > 2 | 0.0912 | – |
| O=C(O)C1(C(=O)O)CC2C3C=CC(C3)C2C1 (stereo not given) | > 398 | > 398 | – |
| O=C1CC(=O)NC(=NN2C(=O)CSC2c2ccccc2)N1 (stereo not given) | > 200 | > 200 | – |
| COC(=O)C(c1ccccc1)C(SCc1ccccc1)c1ccccc1 (stereo not given) | > 200 | > 200 | – |
| C=C(CCC(=O)N(CCc1c[nH]c2ccccc12)C(=O)c1ccccc1CSCC)C(=O)OC | > 200 | 15.1 | – |
| CCCCCCCCCCOC1C(C(O)CNCCCN(C)C)OC2OC3(CCCCC3)OC21 (stereo not given) | > 200 | 1.02 | – |
| Cc1cc(Nc2ccc(S(=O)(=O)O)c3cc(S(=O)(=O)O)cc(S(=O)(=O)O)c23)c2ccccc2n1 | > 200 | > 200 | – |
| CC1=C2c3c(C)ccc4ccc(C)c(c34)C2(O)C(C)C1=O (stereo not given) | > 200 | > 200 | – |
| CN1C(=O)C2CSCN2C1=S (stereo not given) | > 955 | 316 | – |
| Cc1cn(C(C)OCCN(O)C(=O)Oc2ccccc2)c(=O)[nH]c1=O (stereo not given) | > 200 | > 200 | – |
| O=c1cc(Cl)c(Cl)nn1-c1ccccc1 | > 56.2 | 9.77 | – |
| C=C1C(C)C2C(Cc3ccccc3)NC(=O)C23C(OC(C)=O)C=CC(C)(O)C(=O)C(C)C/C=C/C3C1O (stereo not given) | > 20 | 0.17 | – |

| SMILES | EC50 [µM] | IC50 [µM] | outcome |
| --- | --- | --- | --- |
| CC1(C)CC(=O)c2c(oc3cc(O)c(O)cc23)C1 | – | – | inactive |
| S=C(NNc1ccccc1)SSSC(=S)NNc1ccccc1 | > 200 | 26.3 | – |
| N#CC1(C2CC(=O)N(c3ccccc3)C2=O)CCCCC1=O (stereo not given) | – | – | inactive |
| CC1(C)CCc2cc3c(-c4ccccc4)cc(=O)oc3cc2O1 | – | – | inactive |
| O=C(O)c1ccc2c(c1)CC1(C2)Cc2ccccc2C1=O (stereo not given) | > 200 | > 200 | – |
| NCCCCC(=O)NC(CCCCNC(=O)OCc1ccccc1)C(=O)NCCCCC(=O)NC(CCCCNC(=O)OCc1ccccc1)C(=O)NCCCCC(=O)NC(CCCCNC(=O)OCc1ccccc1)C(=O)NCCCCC(=O)NC(CCCCNC(=O)OCc1ccccc1)C(=O)NCCCCC(=O)NC(CCCCNC(=O)OCc1ccccc1)C(=O)O (stereo not given) | > 14.1 | 13.8 | – |
| O=C(CC1(O)C(=O)Nc2c(Cl)cc(Cl)cc21)c1ccc2ccccc2c1 (stereo not given) | > 49 | 20.4 | – |
| COc1ccc(P2(=S)Oc3ccc(C(c4ccccc4)(c4ccccc4)c4ccccc4)cc3O2)cc1 (stereo not given) | – | – | inactive |
| O=C1CSC(c2ccccc2Cl)N1N1C(=O)CSC1c1ccccc1Cl (stereo not given) | > 200 | 18.2 | – |
| CC1OC(OC2C(O)C(O)C(N=C(N)N)C(O)C2N=C(N)N)C(OC2OC(CO)C(O)C(O)C2N(C)C=N)C1(O)CO (stereo not given) | – | – | inactive |
| Nc1ccc(C(=O)NN2C(=O)C(Cl)C2c2cccc(O)c2)cc1 (stereo not given) | > 200 | 9.55 | – |
| O=c1c2cncnc2sc2nc3ccccc3n12 | > 200 | > 200 | – |
| CO/C(=N\N=C\c1cc(OC)ccc1OC)c1ccncc1 | > 24 | > 24 | – |
| Oc1ccc([C@H]2c3c(O)cc(O)cc3C3c4c(cc(O)cc4[C@@H]2[C@H]2c4cc(O)cc5c4C(c4cc(O)cc(O)c4[C@@H]2c2ccc(O)cc2)[C@@H](c2ccc(O)cc2)O5)O[C@@H]3c2ccc(O)cc2)cc1 (stereo not given in full) | > 100 | 13.8 | – |
| COc1ccc(C(C)(C)c2cc3c(cc2OC)OCO3)cc1 | > 45.7 | 0.0316 | – |
| CCCCCCCCCCCOC(=S)NC(C)C | – | – | inactive |
| COc1cc(/C=C/C(=O)O)ccc1OS(=O)(=O)O | > 200 | > 200 | – |
| COc1cc(/C=C/C(=N\NC(=S)NN)c2sc(NNC(C)=O)nc2C)ccc1O | > 12 | > 12 | – |
| COC(=O)c1ccc(CSc2ccccc2C(=O)OC)cc1 | > 22.9 | 19.1 | – |
| CC(C)=CCC[C@@H](C)C1=C(O)C(c2c(I)c(=O)n(C)c(=O)n2C)=C(C)C(=O)C1=O | > 200 | 112 | – |

| SMILES | EC50 [µM] | IC50 [µM] | outcome |
| --- | --- | --- | --- |
| CN(C)c1ncnc2c1ncn2C1OC(CO)C2NP(=O)(N(CCCl)CCCl)OC21 (stereo not given) | > 200 | > 200 | – |
| CCc1oc2ccccc2c1C(=O)c1ccc(O)cc1 | > 324 | 53.7 | – |
| O=C(O)CCCCCCCc1cccc(OCCO)c1 | > 200 | > 200 | – |
| c1ccc2c(c1)[nH]c1scc[n+]12 | – | – | inactive |
| CNc1nc(SC)nc2c1c(N)nn2C | > 200 | > 200 | – |
| O=C(NCCCCN(CCCNC(=O)C(F)(F)F)Cc1ccc2ccccc2c1)C(F)(F)F | > 200 | 34.7 | – |
| COC(=O)C(CSSCC(C(=O)NC(Cc1ccccc1)C(=O)NCC(=O)OC(C)(C)C)N1C(=O)CCC1=O)NC(=O)OCc1ccccc1 (stereo not given) | > 200 | 20.4 | – |
| COc1ccc(-c2nc3ccc([N+](=O)[O-])cc3c(=O)[nH]2)cc1 | – | – | inactive |
| C=CCNC(=S)OCCCCCCCCCC | – | – | inactive |
| O=c1c(SCc2ccccc2F)c(SCc2ccccc2F)cnn1-c1ccccc1 | > 11.5 | 4.9 | – |
| O=C(CN1CCOCC1)Nc1ccc2c(c1)C1Oc3ccccc3CC1CO2 (stereo not given) | – | – | inactive |
| CC(=O)Nc1ccc2cc(-c3ccc(Cl)cc3)c3nnnn3c2n1 | > 200 | > 200 | – |
| O=C(/C=C/c1ccccc1Cl)c1ccccc1 | > 21.4 | 14.5 | – |
| O=C(O)Cc1cccc2c(=O)c(-c3ccccc3)coc12 | > 200 | > 200 | – |
| Cc1cc(=O)n2c(n1)sc1ccc3ccccc3c12 | > 200 | > 200 | – |
| COc1cc2oc(-c3ccc4c(c3)OCO4)c(OC)c(=O)c2c(OC)c1OC | 155 | > 200 | – |
| Cc1cc2c(C(C)C)c(O)c(O)c(C=Nc3ccc(Cl)cc3)c2c(O)c1-c1c(C)cc2c(C(C)C)c(O)c(O)c(C=Nc3ccc(Cl)cc3)c2c1O | > 200 | 11.7 | – |
| COc1cccc(Nc2nc(NNC(=O)Cc3ccccc3)nc(NNC(=O)c3ccncc3)n2)c1 | > 200 | > 200 | – |
| CC(C)=CCC[C@@H](C)c1c2[nH]c3ccccc3sc-2c(C)c(=O)c1=O | > 200 | 4.27 | – |
| O=C(O)Cc1ccc(Nc2nc3cc(C(F)(F)F)ccc3nc2C(=O)O)cc1 | > 200 | > 200 | – |
